Data reported in patent publication US11866695B2, “Methods and systems and related compositions for mixtures separation with a solid matrix” (CALIFORNIA INSTITUTE OF TECHNOLOGY, priority 2019, dated 2024).
“Also recorded” adds a separate entry of the source.

Tested on: LAMP reaction mix
Assay: 3-step Zymo ZR extraction with viral wash buffer replaced, LAMP with 2× dilution of eluent
Type: biochemical
Details: wash replaces viral wash buffer; 5 μL eluent in 10 μL
Protocol: Three different silica-column kits were tested, including: Zymo ZR Viral DNA/RNA Kit (outdated protocol, D7021), Zymo Quick-DNA/RNA Kit (updated protocol, D7021), and the QIAquick PCR Purification Kit (28104, Qiagen). For all silica-column kits, fresh collection tubes were used after each spin and centrifugation speeds were set to 16,000×g. Centrifugation was performed on either an Eppendorf 5415D centrifuge (Eppendorf, Hauppauge, N.Y., USA) or a Thermo Fisher Scientific AccuSpin Micro 17R centrifuge (13-100-676). It was noted that the QIAquick protocol calls for 17,900×g, but instead was run at 16,000×g which was the max speed for the Eppendorf 5415D. For both Zymo kits, 750 μL lysed sample was prepared by mixing 125 μL sample with 125 μL Zymo 2×DNA/RNA Shield and 500 μL Viral DNA/RNA Buffer. For the Zymo ZR Viral DNA/RNA kit, 750 μL lysed sample was centrifuge for 1 min, 500 μL Zymo Viral Wash Buffer was centrifuged for 2 min, and 50 μL nuclease-free water was centrifuged for 30 s into a clean 1.5 mL tube. Optionally, either a dry spin or 300 μL TPW was centrifuged for 2 min in between the Viral Wash Buffer and elution steps. […] For the QIAquick PCR Purification Kit, 125 μL sample was mixed with 625 μL Buffer PB without indicator. 750 μL lysed sample was centrifuged for 30 s, followed by 750 μL Buffer PE for 30 s, a dry spin for 1 min, and 50 μL nuclease-free water for 1 min. Optionally, the dry spin was skipped or the dry spin was replaced with a 300 μL TPW and centrifuged for 1 min.
Exchanging the ethanol wash for a TPW could be useful for applications in which the starting sample is already relatively pure. For this experiment, Zymo ZR kit was used, which has three centrifugation steps: lysis (sample, shield, lysis buffer), wash (ethanol-based viral wash buffer), and elution (water). […] An aliquot of 5 μL of the resulting eluent was added to 5 μL of LAMP reaction mix and amplified at 68° C. Eluent from the manufacturer protocol amplified in 5.7 min. […]

CCO [Ethanol, ethanol]
LAMP performance of eluent: slightly outperforms the viral wash buffer; also recorded: performed slightly better (earlier TTP) than the viral wash buffer
